Measured values taken from patent publication US10703701B2, “Fluoroalkyl, fluoroalkoxy, phenoxy, heteroaryloxy, alkoxy, and amine 1,4-benzoquinone derivatives for treatment of oxidative stress disorders” (PTC Therapeutics, Inc., priority 2015, dated 2020).

How the values were obtained:
[1] = test system: Q7 cells (ST HDH Q7/7; immortalized mouse striatal cells); assay: Q7 cystine deprivation cell survival assay (96-well, Calcein AM); type: cell-based; conditions: for EC50: Mus musculus, rescue of Q7 cells from cystine deprivation, 18 hours, Calcein AM fluorescence, 96-well
Protocol: (§1) In neuronal cells excess extracellular glutamate inhibits the cystine/glutamate antiporter leading to intracellular cysteine depletion, GSH depletion, ROS production and cell death, a phenomenon termed oxidative glutamate toxicity or oxytosis. Q7 cells (ST HDH Q7/7; immortalized mouse striatal cells) challenged with cystine-free media recapitulate this phenotype. An initial screen was performed to identify compounds effective in rescuing Q7 cells from death resulting from cystine deprivation. This method is further described in Yonezawa et al., J. Neurochem 67, 566-573 (1996), and Li et al., J Neurosci., 23, 5816-5826 (2003).
(§2) DMEM (Catalog no. 11995-040), DMEM without Cystine (Catalog no. 21013-024), Penicillin-streptomycin mix, L-Glutamine and Pyruvate were purchased from Gibco. Fetal Bovine Serum was obtained from Mediatech, Inc. Mouse striatum derived ST HDH Q7/7 (Q7) cells were obtained from Dr. M. MacDonald (Massachusetts General Hospital). Methionine and Vitamin K2 were purchased from Sigma Aldrich. Calcein AM was purchased from Anaspec. Geneticin (G418) Sulfate was purchased from Santa Cruz Biotechnology. Cell culture medium (Growth medium) was made by combining 50 mL Fetal Bovine Serum, 100 U/mL penicillin, 100 microgram/mL streptomycin and 400 microgram/mL Geneticin (G418) Sulfate; DMEM was added to make the volume up to 500 mL. Assay medium (without Cystine) was made by combining 50 mL Fetal Bovine Serum, 100 U/mL penicillin, 100 microgram/mL streptomycin, 4 mM L-Glutamine, 1 mM Pyruvate and 30 mg/L Methionine; DMEM without Cystine was added to make the volume up to 500 mL. During the course of the experiments, these solutions were stored at 4° C. The cells were grown in 10-cm diameter tissue culture-treated dishes. Every fourth day, the cells were subcultured by trypsinization and re-seeding at a cell density of 500,000 cells per dish.
(§3) Test samples were supplied in 1.5 mL glass vials. The compounds were diluted with an appropriate volume of DMSO to result in a 1 mM stock solution. Once dissolved, they were stored at −20° C.
Test samples were screened according to the following protocol:
Q7 cells were cultured routinely as described herein. For cell survival assays, cells were seeded in clear 96-well tissue culture-treated polystyrene plates by resuspending a cell suspension at a density of 100,000 cells/mL in growth medium, then dispensing 100 microliters of cell suspension per well using an electronic multichannel pipette, corresponding to 10,000 cells/well. The cell-containing plates were incubated 5 hours at 33° C. in an atmosphere with 95% humidity and 5% CO2 to allow attachment of the cells to the culture plate.
Test compounds were thawed, and 2 microliters of a 1 mM stock solution was diluted in a microtiter plate well containing 98 microliters of 10% DMSO in H2O, resulting in a 20 micromolar master solution. Serial dilutions from the master solution were made in 10% DMSO. The period between the single dilution steps was kept as short as possible (generally less than 30 seconds). 5 hours after cell seeding into the 96-well assay plate, the cell culture medium was removed by inverting the plates and gently patted onto paper towel. The plates were washed once with 100 microliters of PBS containing Ca^++ and Mg^++. PBS containing Ca^++ and Mg^++ were removed by inverting the plates and gently patted onto a paper towel. After washing the wells, 100 microliters of assay medium without Cystine was dispensed and then treated with 10 microliters of the various compound dilutions in triplicates. Final concentration of DMSO in the well was 1%.
After medium change to cystine-free medium and compound addition, cell plates were incubated at 33° C. in an atmosphere of 5% CO2 and 95% humidity. 18 hours later, the medium from all plates was removed by inverting the plates and gently tapping the plate onto a paper towel. […]

[2] = test system: Q7 cells (ST HDH Q7/7; immortalized mouse striatal cells); assay: 384-Well Cell Titer Glo (CTG) Q7 Cystine Deprivation Survival Assay; type: cell-based; conditions: read-out: Q7 Cystine Free CTG 384 CSA (EC50)
Protocol: as §1
as §2, with “21013-024), PBS (Phosphate buffered saline),” for “21013-024),”, “Cell Titer Glo 2.0” for “Calcein AM”, “Promega.” for “Anaspec.”
as §3
Test Samples were Screened According to the Following Protocol:
Q7 cells were cultured routinely as described herein. For 384-well cell survival assays, cells were seeded in clear bottom, black wall 384-well tissue culture-treated polystyrene plates by resuspending a cell suspension at a density of 50,000 cells/mL in growth medium, then dispensing 60 microliters of cell suspension per well using either an electronic multichannel pipette or a Multidrop™ Combi Reagent Dispenser (ThermoFisher Scientific), corresponding to 3,000 cells/well. The cell-containing plates were incubated 5 hours at 33° C. in an atmosphere with 95% humidity and 5% CO2 to allow attachment of the cells to the culture plate.
5 hours after cell seeding into the 384-well assay plate, the cell culture medium was replaced by washing 2 times with 70 microliters/well PBS (without Ca^++ and Mg^++) using a BioTek ELx405 plate washer. After the final aspiration, 60 microliters/well of assay medium (without cystine) was added using the Multidrop Combi Reagent Dispenser. Within 45 minutes, test compounds were then added to varying final concentrations using the Tecan D300e Digital Dispenser, with subsequent back-filling with DMSO diluent to a final concentration of 0.3% (v/v).
After medium change to cystine-free medium and compound addition, cell plates were incubated at 33° C. in an atmosphere of 5% CO2 and 95% humidity. 18 hours later, the plates were equilibrated to room temperature for 15 minutes. Then, 10 microliters/well of room temperature Cell Titer Glo 2.0 reagent was added using the Multidrop Combi Reagent Dispenser. After 15 minutes of incubation at room temperature, the luminescence (100 ms integration time) per well was determined using the BioTek Synergy plate reader. Data was imported into Microsoft Excel. […]

[3] = rescue of Q7 cells from cystine deprivation, 18 hours, Cell Titer Glo luminescence, 384-well

| Compound | EC50 [1] | EC50 [2, 3] | EC50 ([2]; 18 h) | also measured |
| --- | --- | --- | --- | --- |
| CC1=C(C)C(=O)C(CCCCCCCCOCC(F)(F)F)=C(C)C1=O [Example 1, 2,3,5-trimethyl-6-(8-(2,2,2-trifluoroethoxy)octyl)cyclohexa-2,5-diene-1,4-dione] | 500 to 1000 nM | 100 to 500 nM |  |  |
| CC1=C(C)C(=O)C(CCCCCCCCC(F)(F)F)=C(C)C1=O [Example 2, 2,3,5-trimethyl-6-(9,9,9-trifluorononyl)cyclohexa-2,5-diene-1,4-dione] | 500 to 1000 nM | 100 to 500 nM |  |  |
| COCCCCCCCCC1=C(C)C(=O)C(C)=C(C)C1=O [Example 3, 2-(8-methoxyoctyl)-3,5,6-trimethylcyclohexa-2,5-diene-1,4-dione] | 500 to 1000 nM | 100 to 500 nM |  |  |
| CC1=C(C)C(=O)C(CCCCCCCCCCC(F)(F)F)=C(C)C1=O [Example 4, 2,3,5-trimethyl-6-(11,11,11-trifluoroundecyl)cyclohexa-2,5-diene-1,4-dione] | < 500 nM | < 100 nM |  |  |
| CC1=C(C)C(=O)C(CCCCCCCCCCOCC(F)(F)F)=C(C)C1=O [Example 5, 2,3,5-trimethyl-6-(10-(2,2,2-trifluoroethoxy)decyl)cyclohexa-2,5-diene-1,4-dione] | < 500 nM | < 100 nM |  |  |
| COCCCCCCCCCCC1=C(C)C(=O)C(C)=C(C)C1=O [Example 6, 2-(10-methoxydecyl)-3,5,6-trimethylcyclohexa-2,5-diene-1,4-dione] | 500 to 1000 nM | < 100 nM |  |  |
| CC1=C(C)C(=O)C(C(C)C)=C(CCCCCCCCCCC(F)(F)F)C1=O [Example 7, 2-isopropyl-5,6-dimethyl-3-(11,11,11-trifluoroundecyl)cyclohexa-2,5-diene-1,4-dione] | < 500 nM | 100 to 500 nM |  |  |
| CC1=C(C)C(=O)C(NS(C)(=O)=O)=C(CCCCCCCCCCC(F)(F)F)C1=O [Example 8, N-(4,5-dimethyl-3,6-dioxo-2-(11,11,11-trifluoroundecyl)cyclohexa-1,4-dien-1-yl)methanesulfonamide] |  | < 100 nM |  |  |
| CC1=C(C)C(=O)C(CCCCCCCCCCOC(C)C)=C(C)C1=O [Example 9, 2-(10-isopropoxydecyl)-3,5,6-trimethylcyclohexa-2,5-diene-1,4-dione] |  |  | < 100 nM |  |
| CCOCCCCCCCCC1=C(C)C(=O)C(C)=C(C)C1=O [Example 10, 2-(8-ethoxyoctyl)-3,5,6-trimethylcyclohexa-2,5-diene-1,4-dione] |  |  | < 100 nM |  |
| CC1=C(C)C(=O)C(CCCCCCCCCCOCC(C)C)=C(C)C1=O [Example 11, 2-(10-isobutoxydecyl)-3,5,6-trimethylcyclohexa-2,5-diene-1,4-dione] |  |  | < 100 nM |  |
| CCCOCCCCCCCCCCC1=C(C)C(=O)C(C)=C(C)C1=O [Example 12, 2,3,5-trimethyl-6-(10-propoxydecyl)cyclohexa-2,5-diene-1,4-dione] |  |  | < 100 nM |  |
| CC1=C(C)C(=O)C(CCCCCCCCCCOc2ccccc2)=C(C)C1=O [Example 13, 2,3,5-trimethyl-6-(10-phenoxydecyl)cyclohexa-2,5-diene-1,4-dione] |  |  | < 100 nM |  |
| CC1=C(C)C(=O)C(CCCCCCCCOC(C)C)=C(C)C1=O [Example 14, 2-(8-isopropoxyoctyl)-3,5,6-trimethylcyclohexa-2,5-diene-1,4-dione] |  |  | < 100 nM |  |
| COCCCCCCC1=C(C)C(=O)C(C)=C(C)C1=O [Example 15, 2-(6-methoxyhexyl)-3,5,6-trimethylcyclohexa-2,5-diene-1,4-dione] |  |  | 100 to 500 nM |  |
| CCOCCCCCCCCCCC1=C(C)C(=O)C(C)=C(C)C1=O [Example 16, 2-(10-ethoxydecyl)-3,5,6-trimethylcyclohexa-2,5-diene-1,4-dione] |  | < 100 nM |  |  |
| CCCOCCCCCCCCC1=C(C)C(=O)C(C)=C(C)C1=O [Example 17, 2,3,5-trimethyl-6-(8-propoxyoctyl)cyclohexa-2,5-diene-1,4-dione] |  | < 100 nM |  |  |
| CC1=C(C)C(=O)C(CCCCCCCCOCC(C)C)=C(C)C1=O [Example 18, 2-(8-isobutoxyoctyl)-3,5,6-trimethylcyclohexa-2,5-diene-1,4-dione] |  |  | < 100 nM |  |
| CC1=C(C)C(=O)C(CCCCCCCCOc2cccnc2C)=C(C)C1=O [Example 19, 2,3,5-trimethyl-6-(8-((2-methylpyridin-3-yl)oxy)octyl)cyclohexa-2,5-diene-1,4-dione] |  |  | 100 to 500 nM |  |
| CC1=C(C)C(=O)C(CCCCCCCCCCN(C)CC(C)C)=C(C)C1=O [Example 20, 2-(10-(isobutyl(methyl)amino)decyl)-3,5,6-trimethylcyclohexa-2,5-diene-1,4-dione] |  | < 100 nM |  |  |
| CC1=C(C)C(=O)C(CCCCCCCCCCN2CCCC2)=C(C)C1=O [Example 21, 2,3,5-trimethyl-6-(10-(pyrrolidin-1-yl)decyl)cyclohexa-2,5-diene-1,4-dione] |  | < 100 nM |  |  |
| CC1=C(C)C(=O)C(CCCCCCCCCCNCC(C)C)=C(C)C1=O [Example 22, 2-(10-(isobutylamino)decyl)-3,5,6-trimethylcyclohexa-2,5-diene-1,4-dione] |  |  | < 100 nM |  |
| CC(C)=CCC/C(C)=C/CC/C(C)=C/CC/C(C)=C/CC1=C(C)C(=O)c2ccccc2C1=O [Vitamin K2, reference compound] |  |  |  | rescue of cystine deprivation-induced reduction in cell viability ([1]; 1 micromolar, defined as 100% relative viability): completely rescued |
